In patent US20250264484A1, “METHODS FOR IDENTIFYING AND TREATING DISEASES” (Genzyme Corporation, priority 2022, published 2025):

Tests used:
[1] = system: Lyso-GL1 levels; test: CBE dose titration in WT mice: lyso-GL1 accumulation; assay type: in vivo; conditions: cortex, liver and plasma, 24 hours after CBE
Procedure: Lyso-GL1 was detected in cortex (FIG. 2A), liver (FIG. 2B), and plasma (FIG. 2C). N=4 per group (8 for untreated and 100 mg/kg plasma). Results for lyso-GL1 are μg/g wet tissue. […] Error bars show SEM.
A dose response to CBE was performed in wild-type (WT) mice (Charles River Laboratories or Jackson Labs). Concentrations between 0.3 mg/kg and 100 mg/kg of CBE were investigated. GCase activity remaining 24 hours after administration of CBE was measured using a 4-methylumbelliferone (4MU) hydrolysis assay. Briefly, cell lysates from different sample types were diluted into 0.1 M sodium acetate buffer, pH 4.5 containing 10 mM of synthetic substrate 4-methylumbelliferyl-β-D-glucopyranoside and incubated at 37° C. for 1 hour. The reaction was terminated by adding 0.5 volume of 1 M glycine buffer, pH 12.5. The fluorescence of the reaction was measured using a Spectramax fluorimeter (Ex365/Em445; Molecular Devices, Sunnyvale, CA, USA). A standard curve was generated using Cerezyme® (imiglucerase).

[2] = target: T1, GCase (Mus musculus, UniProt P17439); test: CBE dose titration in WT mice: GCase activity (4MU hydrolysis assay); assay type: in vivo; conditions: cortex and liver, 24 hours, 0.3-100 mg/kg CBE
T1 construct: GCase activity remaining 24 hours after administration of CBE was measured; from tissue; host or cells: cortex and liver of wild-type mice (Charles River Laboratories or Jackson Labs)
T1 sequence (P17439 20-515): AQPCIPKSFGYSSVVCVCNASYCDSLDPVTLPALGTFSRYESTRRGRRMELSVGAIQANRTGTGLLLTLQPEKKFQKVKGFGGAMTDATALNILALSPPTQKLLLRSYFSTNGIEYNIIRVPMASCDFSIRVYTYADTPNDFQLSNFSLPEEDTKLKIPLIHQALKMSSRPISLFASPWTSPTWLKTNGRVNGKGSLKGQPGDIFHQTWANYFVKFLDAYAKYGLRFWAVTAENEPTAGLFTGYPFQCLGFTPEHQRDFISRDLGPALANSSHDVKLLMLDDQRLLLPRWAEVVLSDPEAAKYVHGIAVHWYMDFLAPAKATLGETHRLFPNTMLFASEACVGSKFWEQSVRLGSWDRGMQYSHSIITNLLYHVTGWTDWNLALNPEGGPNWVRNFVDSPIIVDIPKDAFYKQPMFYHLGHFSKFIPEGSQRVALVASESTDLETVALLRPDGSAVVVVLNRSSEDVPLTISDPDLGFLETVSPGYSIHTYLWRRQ
Procedure: N=4 per group (8 for untreated and 100 mg/kg plasma). […] Error bars show SEM.

[3] = system: GL1 and lyso-GL1 accumulation; test: CBE timecourse of lipid flux in Gba D409V/D409V, D409V/+ and +/+ mice; assay type: in vivo; conditions: single intraperitoneal CBE injection
Text: For each plot, the top line (with squares) is the homozygous D409V mice, the middle line (with triangles pointing upwards) is the heterozygous mice, and the bottom line (triangles pointing downwards) is the wild-type mice. N=10 per group. Data are shown as mean±SEM.
It was investigated whether substrate accumulation could allow for discrimination between mice harboring different copy numbers of mutations in GBA1. Three mouse models were investigated: Gba^D409V/D409V, Gba^D409V/+, and Gba^+/+, which are homozygous for a loss of function D409V mutation in GBA1, heterozygous for that mutation, or WT for GBA1, respectively. The GCase substrate, glucosylceramide (GL1) was investigated in addition to glucosylsphingosine (lyso-GL1). Mice were administered a single dose of CBE and sacrificed after 3, 6, 24, 48, or 72 hours. Substrate accumulation and dissipation was measured over time.

[4] = system: α-glucosidases; conditions: range given jointly for three glycosidases; read-out: IC50 against α-glucosidases; cited from earlier work
[5] = target: T2, β-glucuronidase (Homo sapiens, UniProt P08236); conditions: range given jointly for three glycosidases; read-out: IC50 against β-glucuronidase; cited from earlier work
T2 sequence (P08236 23-651): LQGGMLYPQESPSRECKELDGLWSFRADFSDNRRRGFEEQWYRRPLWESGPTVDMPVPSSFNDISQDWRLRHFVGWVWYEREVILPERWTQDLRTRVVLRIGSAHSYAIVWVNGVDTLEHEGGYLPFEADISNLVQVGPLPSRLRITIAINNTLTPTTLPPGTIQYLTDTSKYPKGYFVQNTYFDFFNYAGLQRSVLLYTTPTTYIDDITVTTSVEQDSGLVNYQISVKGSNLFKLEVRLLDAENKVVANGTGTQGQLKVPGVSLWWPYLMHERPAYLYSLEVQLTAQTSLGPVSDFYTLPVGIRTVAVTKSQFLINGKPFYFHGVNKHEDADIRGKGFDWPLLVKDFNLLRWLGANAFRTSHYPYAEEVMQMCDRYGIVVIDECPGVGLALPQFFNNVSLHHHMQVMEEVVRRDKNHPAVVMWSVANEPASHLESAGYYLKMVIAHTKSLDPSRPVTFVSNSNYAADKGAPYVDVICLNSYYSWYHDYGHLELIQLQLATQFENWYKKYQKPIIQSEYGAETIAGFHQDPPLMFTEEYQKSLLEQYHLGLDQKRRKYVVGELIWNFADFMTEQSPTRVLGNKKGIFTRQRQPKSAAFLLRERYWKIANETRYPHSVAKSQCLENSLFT

[6] = system: human peripheral blood mononuclear cells (PBMCs); test: CBE challenge in human PBMCs; assay type: cell-based
Procedure: PBMCs were obtained from blood samples (Stem Cell Technologies, catalog number 70025, lot number 2105417005, Donor ID CE0006419) using standard procedures. 25,000 cells were added to individual wells of a multi-well plate and allowed to acclimate for 24 hours before they were treated with 100 μM CBE for 24 hours. Culture medium was removed and replaced with fresh medium (without CBE), and lipids were extracted from the cells at time intervals of 0, 2, 4, 8, 16 and 24 hours. GL1 and lyso-GL1 levels were measured, as were levels of phosphatidylcholine (PC).

[7] = system: SHSY-5Y neuroblastoma cells; test: Lipid response of SHSY-5Y neuroblastoma cells to CBE incubation; assay type: cell-based, human; conditions: 100 μM CBE for 24 hours
Text: In each case, the lyso-GL1 levels without treatment are very low (left-hand bar, in black). Error bars show SD, and data are presented in relative (arbitrary) units, “AU”, which are normalized for cell number.
First, the response of human SHSY-5Y neuroblastoma cells to CBE was studied. Cells were either used without further changes (wild-type) or were modified to reduce or increase Gba activity (knock-down and over-expressed, respectively). The modification was effected by stable transfection with a plasmid expressing an siRNA targeting GBA (KD) or a plasmid constitutively overexpressing GBA (OE). Human SHSY-5Y neuroblastoma cells (Sigma) were incubated with 100 μM CBE (Toronto Research Chemicals) for 24 hours. Enzyme activity and lipid levels were measured at −24 hours (before CBE incubation), and at 0, 24, and 48 hours after CBE removal. […] A marked increase in enzyme activity was observed between the knock-down and wild-type cells, and between the wild-type and over-expressed cells.

[8] = system: lyso-GL1 and GL-1 accumulation; test: CBE timecourse of lipid flux in wild-type mouse strains; assay type: in vivo; conditions: C57BL/6, BALB/cJ and FVB mice after CBE challenge
Procedure: GSL levels were measured in cortex (FIG. 4A), liver (FIG. 4B), and plasma (FIG. 4C). […] Data are shown as mean±SD.
Three different wild-type mouse strains (C57BL/6J, BALB/cJ, and FVB-Charles River Laboratories or Jackson Labs) were evaluated for GSL accumulation and restoration after CBE challenge. […] The CBE challenge time course was performed in these three different strains, measuring lyso-GL1 and GL-1 accumulation at 24, 48, and 72 hours after administration.

[9] = target: T3, non-lysosomal glucosylceramidase (Homo sapiens, UniProt Q9HCG7); conditions: range given jointly for three glycosidases; read-out: IC50 against non-lysosomal glucosylceramidase; cited from earlier work
T3 sequence (Q9HCG7 1-927): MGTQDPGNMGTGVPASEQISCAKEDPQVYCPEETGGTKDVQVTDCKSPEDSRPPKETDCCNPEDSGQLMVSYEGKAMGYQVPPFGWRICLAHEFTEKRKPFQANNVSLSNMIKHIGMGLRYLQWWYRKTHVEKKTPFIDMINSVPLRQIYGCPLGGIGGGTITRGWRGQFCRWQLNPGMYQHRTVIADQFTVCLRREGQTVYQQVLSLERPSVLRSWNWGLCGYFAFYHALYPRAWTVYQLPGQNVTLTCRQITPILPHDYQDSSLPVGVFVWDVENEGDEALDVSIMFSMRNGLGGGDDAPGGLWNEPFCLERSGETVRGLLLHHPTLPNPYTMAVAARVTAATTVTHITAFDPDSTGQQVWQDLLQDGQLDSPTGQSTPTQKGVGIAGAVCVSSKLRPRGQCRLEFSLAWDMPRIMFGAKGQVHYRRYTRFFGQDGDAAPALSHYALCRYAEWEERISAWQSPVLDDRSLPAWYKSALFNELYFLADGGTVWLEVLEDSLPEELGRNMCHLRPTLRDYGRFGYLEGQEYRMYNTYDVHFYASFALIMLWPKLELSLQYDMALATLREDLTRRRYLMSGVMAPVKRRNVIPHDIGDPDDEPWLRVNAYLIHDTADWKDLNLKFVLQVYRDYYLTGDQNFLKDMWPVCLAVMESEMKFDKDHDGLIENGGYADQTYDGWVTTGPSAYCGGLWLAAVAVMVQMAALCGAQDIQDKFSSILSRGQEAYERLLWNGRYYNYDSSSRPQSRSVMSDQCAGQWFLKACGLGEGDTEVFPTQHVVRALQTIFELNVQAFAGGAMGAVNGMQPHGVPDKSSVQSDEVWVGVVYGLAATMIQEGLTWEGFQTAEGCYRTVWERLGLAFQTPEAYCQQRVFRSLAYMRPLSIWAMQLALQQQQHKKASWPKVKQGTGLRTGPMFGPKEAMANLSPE

[10] = target: T4, GCase (Homo sapiens, UniProt P04062); conditions: read-out: IC50 against GCase; cited from earlier work
T4 sequence (P04062 40-536): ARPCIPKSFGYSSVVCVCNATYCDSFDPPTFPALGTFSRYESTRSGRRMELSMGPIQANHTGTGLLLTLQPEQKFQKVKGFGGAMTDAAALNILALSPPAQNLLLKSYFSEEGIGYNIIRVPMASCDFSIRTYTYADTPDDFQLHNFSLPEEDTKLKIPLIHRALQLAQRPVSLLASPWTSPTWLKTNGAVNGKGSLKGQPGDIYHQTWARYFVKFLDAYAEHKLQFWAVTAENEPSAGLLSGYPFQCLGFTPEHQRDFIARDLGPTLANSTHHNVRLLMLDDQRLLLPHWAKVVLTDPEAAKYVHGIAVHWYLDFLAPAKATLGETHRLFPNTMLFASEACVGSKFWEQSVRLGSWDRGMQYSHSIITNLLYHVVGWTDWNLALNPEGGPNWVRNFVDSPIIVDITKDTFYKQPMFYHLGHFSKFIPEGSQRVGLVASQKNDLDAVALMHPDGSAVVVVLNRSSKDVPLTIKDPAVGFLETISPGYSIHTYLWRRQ

[11] = system: SHSY-5Y neuroblastoma cells; conditions: wild-type cells

SMILES	Lyso-GL1 levels [1]	GCase activity remaining after administration of CBE [2]	time of peak substrate accumulation [3] [h]	IC50 [4] [µM]	IC50 [5] [µM]	increase of GL1 levels after CBE treatment ([6]; 100 μM CBE for 24 hours)	phosphatidylcholine (PC) levels ([6]; 100 μM CBE for 24 hours)	GL1 levels after CBE treatment ([6]; 100 μM CBE for 24 hours, baseline about 2 ng/ml)	lyso-GL1 levels after CBE treatment ([6]; 100 μM CBE for 24 hours, from nearly undetectable levels)	time for GL1 and lyso-GL1 levels to normalize after treatment ([6]; normalized to PC levels) [h]	GL1 and lyso-GL1 accumulation upon CBE treatment ([7]; KD, WT and OE SHSY-5Y cells)	total GL1 levels after treatment ([7]; wild-type SHSY-5Y cells)	time of peak glycosphingolipid levels [8] [h]	IC50 [9] [µM]	IC50 [10] [µM]	increase of response (dynamic range) on incubation with sodium taurocholate [11] [factor]
O[C@H]1[C@H](O)[C@@H](O)[C@@H]2O[C@@H]2[C@@H]1O [CBE, conduritol-β epoxide]	increased with increasing CBE dose beyond 30 mg/kg	dose-dependent reduction in enzyme activity	24 to 48	200 to 2000	200 to 2000	about 6 fold	largely unaffected	about 12 ng/ml	about 0.08 ng/ml	16	inversely proportional to the level of GBA1 expression	No significant difference	24	200 to 2000	~0.3	–
C[C@H](CCC(=O)NCCS(=O)(=O)O)[C@H]1CC[C@H]2[C@@H]3[C@H](O)C[C@@H]4C[C@H](O)CC[C@]4(C)[C@H]3C[C@H](O)[C@]12C [sodium taurocholate]	–	–	–	–	–	–	–	–	–	–	–	–	–	–	–	~10
